The values below come from ChEMBL document CHEMBL1201862, “PubChem BioAssay data set” (2004).

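Five concentrations, 48 hours, 96-well plates. GI50 = concentration required for 50% inhibition of growth.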 Calls of active or inactive are those of the source. No stated cut-off is given here; in the data, active = GI50 up to about 1.1 µM and inactive = higher.

Common to all, as to test: growth of human tumour cells (NCI), 48 h
Assay [1] has as its system MOLT-4.
For assay [2], the system named is HOP-92.
The test system of assay [3] is U-251.
Assay [4] concerns HCT-15.
In assay [5] the test system is SNB-19.
For assay [6], the system named is PC-3.
The test system of assay [7] is HL-60.
The subject of assay [8] is MDA-MB-231.
Assay [9] deals with IGROV-1.
In assay [10] the test system is MCF7.
In assay [11] the test system is COLO 205.
Assay [12] relates to SF-268.
In assay [13] the test system is K562.
Assay [14] concerns RXF 393.
The subject of assay [15] is CAKI-1.
Assay [16] has as its system OVCAR-4.
The test system of assay [17] is CCRF-CEM.
Assay [18] concerns TK-10.
Assay [19] deals with BT-549.
For assay [20], the system named is HCC 2998.

As for `CC(=O)OC1OC(c2ccoc2)C[C@@]12C1CCC3O[C@]3(C)[C@]1(C)C[C@H](OC(C)=O)[C@H]2C` (stereo not given in full), the GI50 is > 75 µM (inactive) in [1]; 72.8 µM (inactive) in [2]; > 75 µM (inactive) in [3]; over 75 µM in assay [4]; > 75 µM (inactive) in [5]; 44.7 µM (inactive) in [6]. Besides, the GI50 was 42.9 µM (inactive) in assay [7]; 45.9 µM (inactive) in assay [8]; > 75 µM (inactive) in [9]; 44.9 µM (inactive) in assay [10]; > 75 µM (inactive) in assay [11]; > 75 µM (inactive) in [12]. In addition, the GI50 in [13] was > 75 µM (inactive); in assay [14] it was > 75 µM (inactive); in assay [15] it was > 75 µM (inactive); in assay [16] it was 59.2 µM (inactive); in assay [17], 38.1 µM (inactive); in assay [18], > 75 µM (inactive). Also, the GI50 in assay [19] and in assay [20] was > 75 µM (inactive) each time.
`N#CC(c1ccccc1)N(CCCCCCN(C(=O)c1ccccc1)C(C#N)c1ccccc1)C(=O)c1ccccc1` (stereo not given): the GI50 was 34.4 µM (inactive) in assay [1]; 16.5 µM (inactive) in assay [2]; 52.6 µM (inactive) in [3]; 31.3 µM in [4]; 44.2 µM (inactive) in assay [5]; 28.2 µM (inactive) in assay [6]. The GI50 in assay [7] was 32.3 µM (inactive); in assay [8], 47.6 µM (inactive); in assay [9] it was 52.6 µM (inactive); in assay [10] it was 28.1 µM (inactive); in [11] it was 18.1 µM (inactive); in assay [12] it was 40.4 µM (inactive). Also, the GI50 was 35.2 µM (inactive) in assay [13]; 52.1 µM (inactive) in [14]; 32.1 µM (inactive) in [15]; 35 µM (inactive) in [16]; 49.8 µM (inactive) in assay [17]; 18.7 µM (inactive) in assay [18]. Moreover, the GI50 in assay [19] was 31.1 µM (inactive); in [20] it was 17.1 µM (inactive).
On to `O=C1/C(=C/c2ccc(O)c(O)c2)CCC/C1=C\c1ccc(O)c(O)c1`, for which the GI50 in [1] was 2.42 µM (inactive); in assay [2], 2.98 µM (inactive); in assay [3] it was 2.92 µM (inactive); in assay [4], 4.13 µM; in assay [5] it was 7.08 µM (inactive); in assay [6] it was 3.98 µM (inactive). In addition, the GI50 is 3.24 µM (inactive) in assay [7]; 5.14 µM (inactive) in [8]; 4.05 µM (inactive) in assay [9]; 5.16 µM (inactive) in assay [10]; 7.03 µM (inactive) in assay [11]; 3.02 µM (inactive) in [12]. In addition, the GI50 was 3.71 µM (inactive) in assay [13]; 2.62 µM (inactive) in assay [14]; 3.68 µM (inactive) in [15]; 5.38 µM (inactive) in assay [16]; 1.52 µM (inactive) in assay [17]; 3.79 µM (inactive) in assay [18]. Moreover, the results for the GI50 in [19] and in assay [20] were 4.74 µM (inactive) and 4.12 µM (inactive), respectively.
Regarding `CCOC(=O)C1=C(Cl)c2cccnc2C1=O`, the GI50 is 34 µM (inactive) in [1]; > 100 µM (inactive) in assay [2]; 35.6 µM (inactive) in [3]; 53.7 µM in [4]; 53 µM (inactive) in assay [5]; > 100 µM (inactive) in assay [6]. For the same compound, the GI50 was > 100 µM (inactive) in assay [7]; > 100 µM (inactive) in [8]; 52.8 µM (inactive) in [9]; 38.5 µM (inactive) in assay [10]; 43.4 µM (inactive) in assay [11]; 55.2 µM (inactive) in assay [12]. For the same compound, the GI50 in [13] was 54.7 µM (inactive); in assay [14], > 100 µM (inactive); in [15], 54.6 µM (inactive); in [16] it was > 100 µM (inactive); in assay [17], 26.4 µM (inactive); in assay [18], > 100 µM (inactive). Further, the GI50 in assay [19] was 45.4 µM (inactive); in assay [20] it was 61.7 µM (inactive).
